Measured values as given in patent publication US20060122276A1, “Agent for inhibiting membrane virus reproduction, method for the production thereof, pharmaceutical composition and method for inhibiting viral infections” (priority 2003, published 2006).
Where two headings read alike, the source gives them in different places.

How the values were obtained:
[1] = for Solubility in o-Dichlorobenzene: solvent o-dichlorobenzene
HIV-1 = conditions: for CPE/syncytia, % / Viability of cells, %: HIV-1; for CPE/syncytia, %: Table 9; for Viability of cells, %: Table 9 (virus control 42)
Method: Cells Reinoculated humans lymphoblastoid cells MT-4 were used. […] The viability of the cells was determined from the color of a 0.4% solution of trypan blue.
Retrovir (azidothymidin) produced by GlaxoWellcome (Great Britain) was used as positive control.
The Antiviral activity of the preparations was investigated on a model of lymphoblastoid cells in a plastic 24-cell plate. The virus dose was 100 TCD50 (50% tissue cytopathic dose). […] The activity of the preparation was determined from the inhibition of the virus-induced cytopathic action (CPA) in the cell cultures and the virus antigen level in the culture fluid by immunoenzymatic analysis.

[2] = tested on: herpes simplex virus (HSV-1); experiment: Antiviral activity with respect to HSV-1 in VERO cells; format: cell-based, type 1, strain L2; conditions: HSV-1, 10 TCD50/ml, VERO; for Degree of protection from CE virus, % A: substance contact time with cells 24 hrs; for Degree of protection from CE virus, % B: substance contact time with cells 48 hrs
From the text: Herpes simplex virus, type 1, strain L2, replicated in VERO cells was used in the investigation.
[…] acyclovir was used as positive control

[3] = tested on: lymphoblastoid human cells MT-4; experiment: Cytotoxicity on non-infected human lymphoblastoid cells; format: cell-based; conditions: cytotoxicity
[4] = 300 μg/ml, human lymphoblastoid cells

Row | Compound | Solubility in o-Dichlorobenzene [1] | Antiviral activity with respect to HIV-1 compared with fullerene-polyamino-caproic acid (HIV-1) | CPE/syncytia, % (HIV-1; 0.1 μg/ml) | Viability of cells, % (HIV-1; 0.1 μg/ml) | CPE/syncytia, % (HIV-1; 0.5 μg/ml) | Viability of cells, % (HIV-1; 0.5 μg/ml) | CPE/syncytia, % (HIV-1; 1.0 μg/ml) | Viability of cells, % (HIV-1; 1.0 μg/ml) | CPE/syncytia, % (HIV-1; 10.0 μg/ml) | Viability of cells, % (HIV-1; 10.0 μg/ml) | Degree of protection from CE virus, % A ([2]; 10.0 μg/ml) | Degree of protection from CE virus, % B ([2]; 10.0 μg/ml) | other results
1 | sodium salt of fullerene-polyamino-butyric acid [ABA] | No | lower antiviral activity | 25% | 52% | 15% | 65% | 10% | 71% | 0% | 72% | 33.3% | 33.3% | Degree of protection from CE virus, % A ([2]; 0.1 μg/ml): 0.0%; Degree of protection from CE virus, % B ([2]; 0.1 μg/ml): 33.3%; Degree of protection from CE virus, % A ([2]; 25.0 μg/ml): 100%; Degree of protection from CE virus, % B ([2]; 25.0 μg/ml): 100%; Degree of protection from CE virus, % A ([2]; 50.0 μg/ml): 100%; Degree of protection from CE virus, % B ([2]; 50.0 μg/ml): 100%
2 | c12c3c4c5c1c1c6c7c2c2c8c3c3c9c4c4c%10c5c5c1c1c6c6c%11c7c2c2c7c8c3c3c8c9c4c4c9c%10c5c5c1c1c6c6c%11c2c2c7c3c3c8c4c4c9c5c1c1c6c2c3c41 [Fullerene] | Yes | – | – | – | – | – | – | – | – | – | – | – | Solubility in Glacial acetic acid ([1]; solvent glacial acetic acid): No; Solubility in Toluene ([1]; solvent toluene): Yes; Solubility in Water ([1]; solvent water): No
3 | sodium salt of fullerene-polyamino-octanoic acid [AOA] | – | lower antiviral activity | 25% | 50% | 25% | 53% | 25% | 57% | 0% | 60% | 100% | 100% | Viability of cells, % ([3]; 100 μg/ml, human lymphoblastoid cells (cell control 95)): 79%; Number of cells × 10^3/ml ([3]; 100 μg/ml, human lymphoblastoid cells (cell control 250)): 150 × 10^3/ml; Number of cells × 10^3/ml [3, 4]: 150 × 10^3/ml; Viability of cells, % [3, 4]: 82%; Degree of protection from CE virus, % A ([2]; 1.0 μg/ml): 33.3%; Degree of protection from CE virus, % B ([2]; 1.0 μg/ml): 100%
